Experimental data reported in patent publication US8067424B2, “Selective inhibitors for cyclin-dependent kinases” (Emory University, priority 2007, dated 2011).
Read-outs that look alike come from different tables or passages of the source.

Tests used:
Assay type in all cases: biochemical
[1] = biological target: FGF-R1 (Homo sapiens, UniProt P11362); experiment: Kinase screen: FGF-R1 assay; conditions: 10 micromolar compound; for remaining activity at 10 µM: read-out: mean activity remaining (as a percentage of the original activity), FGF-R1
FGF-R1, sequence (P11362 22-822, species assumed): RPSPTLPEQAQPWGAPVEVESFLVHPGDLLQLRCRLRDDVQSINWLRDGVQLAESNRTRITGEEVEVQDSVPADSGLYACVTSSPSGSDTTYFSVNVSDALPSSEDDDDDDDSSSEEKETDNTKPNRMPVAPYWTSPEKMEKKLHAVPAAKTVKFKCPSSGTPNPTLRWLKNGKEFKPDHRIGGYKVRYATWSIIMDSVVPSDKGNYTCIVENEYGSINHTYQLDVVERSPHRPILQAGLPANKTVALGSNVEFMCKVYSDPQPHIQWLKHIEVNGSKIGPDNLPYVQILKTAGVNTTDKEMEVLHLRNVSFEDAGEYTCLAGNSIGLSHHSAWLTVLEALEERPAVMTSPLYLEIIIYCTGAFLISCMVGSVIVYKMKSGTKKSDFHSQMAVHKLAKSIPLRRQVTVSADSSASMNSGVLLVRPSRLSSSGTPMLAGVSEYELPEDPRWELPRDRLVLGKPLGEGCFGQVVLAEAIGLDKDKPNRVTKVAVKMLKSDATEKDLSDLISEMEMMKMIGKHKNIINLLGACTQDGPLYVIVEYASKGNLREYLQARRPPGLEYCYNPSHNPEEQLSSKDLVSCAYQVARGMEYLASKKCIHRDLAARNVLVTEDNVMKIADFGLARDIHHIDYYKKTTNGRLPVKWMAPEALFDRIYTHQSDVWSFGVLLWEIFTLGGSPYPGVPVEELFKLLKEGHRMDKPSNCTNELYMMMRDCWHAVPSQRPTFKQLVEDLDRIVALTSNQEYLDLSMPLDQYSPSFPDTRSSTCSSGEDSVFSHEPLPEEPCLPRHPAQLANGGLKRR
Description: (§1) Generally, the same procedure was used for all assays. Since the total assay volume was 25.5 microliters, 0.5 microliters of inhibitors at 51× assay concentration were added to the plates before any other addition.
(§2) The basic procedure was to add 0.5 microliters inhibitor/control in DMSO to plate. Fifteen microliters of enzyme/substrate/buffer mix were added and incubated for 5 min. Ten microliters MgATP at the relevant concentration were added and incubated for 30 min. The assay was stopped by adding 5 microliters of 3% orthophosphoric acid. The assay was transferred to a p81 filter plate and read in a scintillation counter of 30 sec/well. Note that this assay procedure was not followed for MKK1, which instead involved a two-step assay, and PKC alpha, which required the addition of lipid vesicles.
FGF-R1 assay: FGF-R1 (5-20 mU diluted in 50 mM Tris pH 7.5, 0.1 mM EGTA, 1 mg/ml BSA) was assayed against a substrate peptide (Poly Glut Tyr) in a final volume of 25.5 μl containing 50 mM Tris pH 7.5, 1 mg/ml substrate peptide, 10 mM magnesium acetate and 0.02 mM [33P-g-ATP] (50-1000 cpm/pmole) and incubated for 30 min at room temperature. Assays were stopped by addition of 5 μl of 0.5 M (3%) orthophosphoric acid and then harvested onto P81 Unifilter plates with a wash buffer of 50 mM orthophosphoric acid.

[2] = biological target: PIM2 (Homo sapiens, UniProt Q9P1W9); experiment: Kinase screen: PIM2 assay
PIM2, sequence (Q9P1W9 whole entry, species assumed): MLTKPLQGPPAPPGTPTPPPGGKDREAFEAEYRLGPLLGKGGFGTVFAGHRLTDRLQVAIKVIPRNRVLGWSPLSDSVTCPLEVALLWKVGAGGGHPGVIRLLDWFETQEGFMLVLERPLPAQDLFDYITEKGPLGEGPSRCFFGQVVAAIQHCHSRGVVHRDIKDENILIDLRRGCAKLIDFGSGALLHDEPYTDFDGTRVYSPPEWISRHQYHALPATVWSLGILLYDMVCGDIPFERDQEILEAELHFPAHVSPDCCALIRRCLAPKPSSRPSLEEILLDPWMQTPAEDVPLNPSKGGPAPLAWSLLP
Description: as §1, §2
PIM2 assay: 5-20 mU of PIM2 (diluted in 50 mM Tris (pH 7.5), 0.1 mM EGTA, 1 mg/ml BSA, 0.1%, b-Mercaptoethanol) was assayed against substrate peptide ([…]) (SEQ ID NO: 23) in a final volume of 25.5 μl containing 50 mM Tris (pH 7.5), 0.1 mM EGTA, 0.5 mM CaCl2, 0.3 μM calmodulin, 0.1%, b-Mercaptoethanol, 300 μM substrate peptide, 10 mM magnesium acetate and 0.005 mM [33P-g-ATP] (500-1000 cpm/pmole) and incubated for 30 mins at room temperature. Assays were stopped by addition of 5 μl of 0.5M (3%) orthophosphoric acid. Assays were harvested onto P81 Unifilter plates using a wash buffer of 50 mM orthophosphoric acid.

[3] = biological target: MAPKAP-K2 (Homo sapiens, UniProt P49137); experiment: Kinase screen: MAPKAP-K2 assay
MAPKAP-K2, sequence (P49137 whole entry, species assumed): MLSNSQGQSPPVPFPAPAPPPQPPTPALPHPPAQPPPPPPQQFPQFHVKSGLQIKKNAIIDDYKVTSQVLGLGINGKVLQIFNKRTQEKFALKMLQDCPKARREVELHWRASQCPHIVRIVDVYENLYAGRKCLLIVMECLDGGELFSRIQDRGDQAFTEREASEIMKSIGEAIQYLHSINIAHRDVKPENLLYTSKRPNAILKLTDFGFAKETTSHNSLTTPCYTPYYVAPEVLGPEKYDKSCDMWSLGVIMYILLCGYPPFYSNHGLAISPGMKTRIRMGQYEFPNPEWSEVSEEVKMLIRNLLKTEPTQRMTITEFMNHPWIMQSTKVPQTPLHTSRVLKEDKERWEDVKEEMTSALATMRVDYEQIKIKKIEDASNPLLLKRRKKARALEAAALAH
Description: as §1, §2
MAPKAP-K2 assay: MAPKAP-K2 (5-20 mU diluted in 20 mM MOPS pH 7.5, 1 mM EDTA, 0.01% Brij35, 5% glycerol, 0.1% b-mercaptoethanol, 1 mg/ml BSA) was assayed against […] (SEQ ID NO: 3) in a final volume of […] containing 50 mM Na-b-glycerophosphate pH 7.5, 0.5 mM EDTA, 30 μM substrate peptide, 10 mM magnesium acetate and 0.02 mM [33P-g-ATP] (50-1000 cpm/pmole) and incubated for 30 min at room temperature. Assays were stopped by addition of 5 μl of 0.5 M (3%) orthophosphoric acid and then harvested onto P81 Unifilter plates with a wash buffer of 50 mM orthophosphoric acid.

[4] = biological target: CDK4 (Homo sapiens, UniProt P11802); experiment: CDK4 in vitro kinase inhibition (protocol similar to Example 14); conditions: for remaining activity at 0.1 µM: 100 nM, mean of three (standard deviation), read-out: CDK4 % remaining kinase activity after incubation with 100 nM of compound; for IC50: Table 7, mean of three experiments
CDK4, sequence (P11802 whole entry): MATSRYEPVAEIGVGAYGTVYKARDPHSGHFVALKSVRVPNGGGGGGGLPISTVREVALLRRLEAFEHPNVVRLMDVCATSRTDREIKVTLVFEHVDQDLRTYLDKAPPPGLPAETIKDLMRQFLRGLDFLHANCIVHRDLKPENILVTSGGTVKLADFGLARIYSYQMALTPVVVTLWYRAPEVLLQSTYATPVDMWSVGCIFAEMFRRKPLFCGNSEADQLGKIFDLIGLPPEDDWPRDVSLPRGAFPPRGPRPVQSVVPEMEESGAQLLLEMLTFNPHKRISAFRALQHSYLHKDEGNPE
CDK4, sequence (P24385 whole entry partner): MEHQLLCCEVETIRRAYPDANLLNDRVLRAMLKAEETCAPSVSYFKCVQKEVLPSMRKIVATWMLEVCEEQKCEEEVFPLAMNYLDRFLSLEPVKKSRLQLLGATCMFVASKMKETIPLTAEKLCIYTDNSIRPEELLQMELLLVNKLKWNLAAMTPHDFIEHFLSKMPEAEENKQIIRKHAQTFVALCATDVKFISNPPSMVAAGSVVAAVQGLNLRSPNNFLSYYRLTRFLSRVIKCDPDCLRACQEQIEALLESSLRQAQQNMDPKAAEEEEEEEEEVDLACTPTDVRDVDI

[5] = 10 micromolar compound, read-out: mean activity remaining (as a percentage of the original activity), PIM2
[6] = 10 micromolar compound, read-out: mean activity remaining (as a percentage of the original activity), MAPKAP-K2

| Compound | mean activity remaining (as a percentage of the original activity), FGF-R1 [1] [%] | mean activity remaining (as a percentage of the original activity), PIM2 ([2]; 10 micromolar compound) [%] | mean activity remaining (as a percentage of the original activity), MAPKAP-K2 ([3]; 10 micromolar compound) [%] | remaining activity at 10 µM ([2]; PIM2, 10 μM, read-out: Mean Remaining Enzyme Activity (%)) [%] | remaining activity at 10 µM ([3]; MAPKAP-K2, 10 μM, read-out: Mean Remaining Enzyme Activity (%)) [%] | remaining activity at 10 µM [1] [%] | remaining activity at 0.1 µM [4] [%] | IC50 [4] [nM] | remaining activity at 10 µM [2, 5] [%] | remaining activity at 10 µM [3, 6] [%] |
| --- | --- | --- | --- | --- | --- | --- | --- | --- | --- | --- |
| CC(C)c1cnn2c(NCc3ccccc3F)cc(NCCCCCN)nc12 [ICEC-0232] | 82 | 102 | 88 | – | – | – | – | – | – | – |
| CC(C)c1cnn2c(NCc3ccccc3)cc(NCCCCCCCN)nc12 [BS-181] | – | – | – | 102 | 88 | – | – | – | – | – |
| CC[C@H](CO)Nc1cc(NCc2ccccc2)n2ncc(C(C)C)c2n1 [ICEC0067] | – | – | – | – | – | 78 | 88 | > 1000 | 92 | 110 |
| C=C[C@H](CO)Nc1cc(NCc2ccccc2)n2ncc(C(C)C)c2n1 [ICEC0065] | – | – | – | – | – | 87 | 77 | > 1000 | 93 | 111 |
| CC(C)c1cnn2c(NCc3ccccc3)cc(N[C@@H](CO)[C@H](O)CO)nc12 [ICEC0318, (3S)-3-(7-(Benzylamino)-3-isopropylpyrazolo[1,5-a]pyrimidin-5-ylamino)butane-1,2,4-triol] | – | – | – | – | – | 86 | 88 | > 1000 | 94 | 111 |
